Data reported in article PMC8839821, “Potential Mechanisms Involved in the Protective Effect of Dicaffeoylquinic Acids from Artemisia annua L. Leaves against Diabetes and Its Complications” (Molecules, 2022).

Tests used:
[1] = target: T1, Dipeptidyl Peptidase IV (DPPIV) enzyme (Homo sapiens, UniProt P27487); experiment: Dipeptidyl peptidase IV (DPPIV) inhibition assay (fluorometric inhibitor screening kit); assay type: biochemical; conditions: mean ± SEM of two replicates; read-out: DPPIV inhibitory activity IC50 (converted)
T1 construct: purchased Abnova
Experimental: The dipeptidyl peptidase IV (DPPIV) inhibition effectiveness of the polar fraction of Artemisia annua (ART-CQ) and the isolated compounds was determined fluorometrically by using the DPPIV Inhibitor Screening Kit (Abnova, Taipei, Taiwan) following the manufacturer’s protocol. […] Then the enzyme substrate solution was added, and the […] was measured at Ex/Em = 360/460 nm. The plate was reincubated for 30 min at 37 °C and the […] was recorded again. Vidagliptin was used as the reference standard. The difference between the two readings was estimated and the IC50 was determined.

α-glucosidase = experiment: α-Glucosidase inhibition assay (inhibitor screening kit); assay type: biochemical; conditions: mean ± SEM of two replicates
Experimental: The in vitro α-glucosidase inhibitory potential of ART-CQ and its isolated compounds was evaluated using the α-Glucosidase Inhibitor Screening Kit (Biovision, Milpitas, CA, USA). […] After incubation, 20 µL of the α-Glucosidase Substrate in buffer was added and the absorbance was measured kinetically at 410 nm for 60 min. The polar fraction was tested in concentrations (10, 50, 100, 200 µg/mL) while the concentrations of the isolated compounds were (5, 20, 50, 100 µg/mL).
The change in absorbance is directly proportional to enzyme activity and the presence of enzyme inhibitor reduces the formation of the end product with the resultant decrease in absorbance.

α-amylase enzyme = target: T2, α-amylase enzyme (Sus scrofa, UniProt P00690); experiment: α-Amylase inhibition assay (CNPG3 hydrolysis, kinetic); assay type: biochemical, porcine pancreas
T2 construct: Alpha-amylase (porcine pancreas); purchased Sigma-Aldrich; host or cells: porcine pancreas
T2 sequence (P00690 16-511): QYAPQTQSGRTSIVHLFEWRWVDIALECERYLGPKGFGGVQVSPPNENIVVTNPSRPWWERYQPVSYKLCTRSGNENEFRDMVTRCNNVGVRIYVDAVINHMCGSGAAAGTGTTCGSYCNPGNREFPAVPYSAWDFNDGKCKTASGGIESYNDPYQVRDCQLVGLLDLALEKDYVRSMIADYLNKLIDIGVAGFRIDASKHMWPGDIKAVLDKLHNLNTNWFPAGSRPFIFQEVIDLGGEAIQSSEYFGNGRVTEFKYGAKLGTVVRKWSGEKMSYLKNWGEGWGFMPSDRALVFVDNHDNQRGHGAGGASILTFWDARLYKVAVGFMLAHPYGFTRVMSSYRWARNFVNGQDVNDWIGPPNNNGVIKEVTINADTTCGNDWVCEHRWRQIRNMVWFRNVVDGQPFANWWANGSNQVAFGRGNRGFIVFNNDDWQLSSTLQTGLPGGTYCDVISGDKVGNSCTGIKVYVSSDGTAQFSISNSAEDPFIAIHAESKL
Experimental: Alpha-amylase (porcine pancreas), 2-chloro-4-nitrophenyl-D-maltotrioside (CNPG3) and tetramethylsilane were from Sigma-Aldrich (St. Louis, MO, USA) while the remaining chemicals were from UFC Biotechnology. Spectrophotometric readings were performed using the microplate reader (Anthos Zenyth 200RT, Cambridge, UK). ^1H-NMR (400 MHz) analysis was carried out using Bruker NMR Spectrometer (Bruker, Yokohama, Japan). Spectra were recorded in CD3OD or DMSO-d6 with tetramethylsilane being employed as an internal standard, and chemical shift values were expressed in ppm.
The inhibitory effect of the polar fraction (ART-CQ) and isolated compounds from Artemisia Annua on the activity of α-amylase enzyme was assessed kinetically as previously described. […] The change in absorbance per min is proportional to the enzyme activity. Various concentrations of ART-CQ (10, 50, 100, 200 µg/mL) and isolated compounds (5, 20, 50, 100 µg/mL) were preincubated with the enzyme for 15 min at 37 °C before the addition of CNPG3.

[2] = DPPH radical scavenging assay; conditions: mean ± SEM of two replicates
Experimental: 2,2-diphenyl-1-picrylhydrazil (DPPH) Radical Scavenging Assay was exploited to assess the free radical scavenging potential of ART-CQ and the pure compounds according to Motaal et al., 2011 [52]. Different concentrations of ART-CQ (8, 16, 48, 64 µg/mL) and the isolated compounds (2, 4, 12, 16 µg/mL) were used. Ascorbic acid was used as the standard positive control and water was used in place of samples as a blank. The IC50 value for the test samples and standard was evaluated.

[3] = Ferric Reducing Antioxidant Power (FRAP) assay; conditions: ART-CQ 50 µg/mL, isolated compounds 25 µg/mL
Experimental: The DetectX® Ferric Reducing Antioxidant Power (FRAP™) Detection Kit (Arbor assays, Ann Arbor, MI, USA) was used to estimate the antioxidant and ferric reducing activity of the polar fraction of A. annua and the isolated compounds in accordance with the method of Benzie and Strain (1996). ART-CQ was utilized in a concentration of (50 µg/mL) while the isolated compounds were used in a concentration of (25 µg/mL). Ferric chloride standard and ascorbic acid control were used in the assay and the FRAP values were estimated and presented as µM FeCl2.

[4] = test system: human skin fibroblast (HSF) cells; experiment: In vitro cell viability / cytotoxicity (SRB assay); assay type: cell-based; conditions: 72 h incubation, highest tested concentration 100 µg/mL
Experimental: (§1) Human Skin Fibroblasts (HSF) cell line was obtained from Nawah Scientific Inc. (Mokatam, Cairo, Egypt). Cells were kept in DMEM media with […] of streptomycin, 100 units/mL of penicillin and 10% of heat-inactivated fetal bovine serum in humidified, 5% (v/v) CO2 atmosphere at 37 °C.
Effect of the alcoholic extract and the isolated compounds on cell viability was evaluated to assess their safety utilizing SRB assay. An aliquot of 100 µL cell suspension (5 × 10^3 cells) was incubated with 100 μL media containing the test samples at concentrations (0.01, 0.1, 1, 10, 100 µg/mL) for 72 h. Media was removed and 150 μL of 10% TCA was added for fixing the cells that was further incubated at 4 °C for 1h. Cells were then washed with distilled water and 70 μL 0.4% SRB solution was added, and plates were placed in dark for 10 min. Plates were then washed with 1% acetic acid and left to dry overnight. 150 μL of 10 mM TRIS was then added and the absorbance was measured at 540 nm using a BMG LABTECH®-FLUOstar Omega microplate reader (Ortenberg, Germany). Experiments were done in triplicates and the IC50 was calculated.

[5] = test system: human skin fibroblast (HSF) cells; experiment: Scratch wound healing assay; assay type: cell-based; conditions: for effect on scratch wound healing (in words): tested at 10, 100, 1000 µg/mL; for time to complete wound healing: control healed in 72 h
Experimental: as §1
The wound healing assay was conducted to evaluate the effect of different concentrations of the polar fraction and isolated compounds from Artemisia Annua on the migration ability of HSF cell line using the scratch wound healing assay as previously described. In a coated 12-well plates, cells were seeded at density of 2 × 10^5/well in 5% FBS-DMEM and cultured overnight at 37 °C and 5% CO2. On the following day, horizontal scratches were made into the confluent monolayer and the plates were washed with PBS and treated with fresh media containing the combined polar extract and the isolated compounds in concentrations of 10, 100, 1000 µg/mL. Control wells were done using only plain medium. The plates were incubated at 37 °C and 5% CO2 and images were captured using an inverted microscope at 24, 48 and 72 h time intervals. The acquired images were analyzed by MII ImageView software version 3.7. Experiments were performed in triplicates. Wound width was calculated as the average distance between the edges of the scratches. As cell migration enhanced, the wound width diminishes.

aldose reductase enzyme = aldose reductase enzyme (Homo sapiens, UniProt P15121); experiment: Aldose reductase inhibition assay (NADPH decrease at 340 nm, screening kit)
Experimental: Aldose reductase inhibitory activity was determined kinetically by measuring the decrease in the absorption of NADPH at 340 nm in a reaction mixture containing, in addition to NADPH, the enzyme, DL-glyceraldehyde and the samples [50]. This was accomplished using the Aldose Reductase Inhibitor Screening Kit (Biovision, Milpitas, CA, USA), in accordance with the manufacturer’s instructions. […] Then 60 μL of NADPH and 90 μL of enzyme solution were added and the plate was incubated in dark for 20 min at 37 °C. Subsequently, 40 μL of DL-glyceraldehyde was pipetted and the absorbance was determined at 340 nm at 37 °C for 90 min.

T1 sequence (P27487 whole entry, species assumed): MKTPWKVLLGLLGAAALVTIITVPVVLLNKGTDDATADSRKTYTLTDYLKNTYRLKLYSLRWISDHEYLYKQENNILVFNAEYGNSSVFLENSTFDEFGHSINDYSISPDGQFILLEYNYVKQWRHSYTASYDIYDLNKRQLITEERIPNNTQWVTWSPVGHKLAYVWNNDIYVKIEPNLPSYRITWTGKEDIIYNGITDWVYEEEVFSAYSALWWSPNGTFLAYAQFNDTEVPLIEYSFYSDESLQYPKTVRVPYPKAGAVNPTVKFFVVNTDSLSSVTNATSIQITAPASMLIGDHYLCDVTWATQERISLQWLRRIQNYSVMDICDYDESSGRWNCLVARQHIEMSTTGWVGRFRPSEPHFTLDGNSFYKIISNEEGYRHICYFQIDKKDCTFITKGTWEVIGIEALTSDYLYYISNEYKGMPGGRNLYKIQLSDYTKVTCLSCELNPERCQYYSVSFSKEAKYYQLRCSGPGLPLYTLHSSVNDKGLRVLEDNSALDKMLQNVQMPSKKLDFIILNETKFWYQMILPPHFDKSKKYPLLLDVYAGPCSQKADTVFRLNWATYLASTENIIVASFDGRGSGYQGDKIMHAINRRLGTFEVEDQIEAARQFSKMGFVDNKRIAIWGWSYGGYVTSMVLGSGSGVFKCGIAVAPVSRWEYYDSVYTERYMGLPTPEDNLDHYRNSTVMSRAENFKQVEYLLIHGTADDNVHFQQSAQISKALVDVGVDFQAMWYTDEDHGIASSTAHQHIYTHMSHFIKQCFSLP

## O=C(C=Cc1ccc(O)c(O)c1)OC1CC(O)(C(=O)O)CC(OC(=O)C=Cc2ccc(O)c(O)c2)C1O (stereo not drawn) [Compound 1, 3,5-dicaffeoylquinic acid]
[1]
  IC50: 436 nM
α-glucosidase
  α-glucosidase inhibitory activity IC50: 157.13 ± 6.82 µg/mL
α-amylase enzyme
  α-amylase inhibitory effect (in words): no α-amylase inhibitory effect
[2]
  DPPH free radical scavenging, concentration for 50% scavenging (IC50): 30.94 ± 4.61 µg/mL
[3]
  FRAP value relative to that of ascorbic acid: about 8 times that of the ascorbic acid
[4]
  IC50: > 100 µg/mL
[5]
  effect on scratch wound healing (in words): inhibited cell migration and wound healing

## O=C(C=Cc1ccc(O)c(O)c1)OC1CC(O)(C(=O)O)CC(O)C1OC(=O)C=Cc1ccc(O)c(O)c1 (stereo not drawn) [Compound 2, 4,5-dicaffeoylquinic acid]
[1]
  IC50: 4400 nM
[2]
  DPPH free radical scavenging, concentration for 50% scavenging (IC50): 14.94 ± 0.60 µg/mL
[4]
  IC50: > 100 µg/mL
[5]; 10 µg/mL, 24 h, control 56%
  wound width as % of the original wound width at 24 h: 40%
[5]; 10 µg/mL
  time to complete wound healing: 48 h
[5]
  effect on scratch wound healing (in words): improved the wound healing

## COC(=O)C1(O)CC(O)C(OC(=O)C=Cc2ccc(O)c(O)c2)C(OC(=O)C=Cc2ccc(O)c(O)c2)C1 (stereo not drawn) [Compound 3, 3,4-dicaffeoylquinic acid methyl ester]
[1]
  IC50: 1080 nM
α-glucosidase
  α-glucosidase inhibitory activity IC50: 250.42 ± 8.44 µg/mL
α-amylase enzyme; mean ± SEM of two replicates
  IC50: 2850 nM
[2]
  DPPH free radical scavenging, concentration for 50% scavenging (IC50): 7.78 ± 0.24 µg/mL
[3]
  FRAP value relative to that of ascorbic acid: more than 30 times that of the ascorbic acid
[4]
  IC50: > 100 µg/mL
[5]; 10 µg/mL, 48 h, control 37%
  wound width as % of the original wound width at 48 h: 23%
[5]; 10 µg/mL
  time to complete wound healing: 72 h
[5]
  effect on scratch wound healing (in words): improved the wound healing
Aldose reductase enzyme
  IC50: 16800 nM

## O=C1O[C@H]([C@@H](O)CO)C(O)=C1O [ascorbic acid, reference compound]
[2]
  DPPH free radical scavenging, concentration for 50% scavenging (IC50): 5.50 ± 0.30 µg/mL
